Results: patent publication US5962502A, “Polyamidic acid derivatives with antigastrin activity, a method for their preparation, and their pharmaceutical use” (priority 1993, dated 1999)
Where “and” joins values, the source holds several entries; their conditions need not be identical. Identical values can stand only once.

How the values were obtained:
[1] = biological target: T1, gastrin receptors or type-B cholecystokinin (CCK-B) receptors (Oryctolagus cuniculus, UniProt P46627); test: Inhibition of the gastrin-induced increase of cytosolic calcium in rabbit gastric mucous-membrane cells (Fura 2); type: cell-based; details: for Ratio IC50 Binding cortex / IC50 (gastric mucous cells): binding values taken from Table 3; for CCK-B-antagonistic activity IC50 (II): data taken from Table 4 (rabbit gastric mucous cells), reprinted in Table 6; for IC50, inhibition of the increase of cytosolic calcium: rabbit gastric mucous cells enriched in parietal cells, gastrin 5×10^-8
T1 construct: Rabbit gastric mucous-membrane cells were prepared by conventional techniques; endogenous in cells; host or cells: freshly isolated rabbit gastric mucosal cells, enriched by elutriation to about 70% parietal cells
T1 sequence (P46627 1-452): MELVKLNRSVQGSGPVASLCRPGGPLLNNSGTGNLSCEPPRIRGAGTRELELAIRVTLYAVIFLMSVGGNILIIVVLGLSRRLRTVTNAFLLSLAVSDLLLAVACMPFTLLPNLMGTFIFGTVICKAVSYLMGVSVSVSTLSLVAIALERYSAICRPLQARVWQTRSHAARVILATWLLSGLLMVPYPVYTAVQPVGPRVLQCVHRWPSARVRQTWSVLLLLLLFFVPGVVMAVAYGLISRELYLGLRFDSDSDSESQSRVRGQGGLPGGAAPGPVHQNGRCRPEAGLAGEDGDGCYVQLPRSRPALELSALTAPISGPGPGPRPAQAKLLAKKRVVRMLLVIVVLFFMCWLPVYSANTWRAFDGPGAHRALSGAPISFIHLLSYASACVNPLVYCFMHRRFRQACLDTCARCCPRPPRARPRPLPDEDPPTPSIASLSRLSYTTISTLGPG
Procedure, shortened: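 Enzymatically dispersed (collagenase/pronase) rabbit gastric mucosal cells, loaded with Fura 2, were suspended at 0.8×10^6/ml in HEPES-buffered saline at 37 °C with stirring. Gastrin-induced cytosolic Ca²⁺ rise was measured with and without compound by fluorescence (excitation 340/380 nm, emission 505 nm).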

central CCK-B receptor = biological target: T2, central CCK-B receptor (Cavia porcellus, UniProt H0VZC5); test: Inhibition of the binding of [3-H][N-methyl-N-leucine]CCK-8 to guinea-pig cortical membranes; details: for times more active than the corresponding diastereoisomer at the carbon atom (**): binding, guinea-pig cortex; for IC50: 150 minutes at 25° C.
T2 construct: Cerebral cortices of male white guinea-pigs were thus used; from tissue; host or cells: cerebral cortex membranes of male white guinea-pigs
T2 sequence (H0VZC5 1-426): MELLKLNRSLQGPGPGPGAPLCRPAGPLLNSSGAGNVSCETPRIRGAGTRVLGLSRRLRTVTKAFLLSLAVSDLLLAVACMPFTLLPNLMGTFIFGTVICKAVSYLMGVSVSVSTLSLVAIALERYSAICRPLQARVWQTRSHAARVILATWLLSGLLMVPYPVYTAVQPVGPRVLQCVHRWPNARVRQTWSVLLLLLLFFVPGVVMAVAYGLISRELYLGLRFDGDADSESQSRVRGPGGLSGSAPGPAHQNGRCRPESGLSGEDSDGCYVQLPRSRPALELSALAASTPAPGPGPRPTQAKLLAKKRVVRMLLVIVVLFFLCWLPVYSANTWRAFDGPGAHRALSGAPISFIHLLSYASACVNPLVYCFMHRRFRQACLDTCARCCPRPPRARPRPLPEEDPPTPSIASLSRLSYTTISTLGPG
Procedure, shortened: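 Male guinea-pig cerebral cortex membranes (about 300 mcg protein/ml) incubated with non-sulphated [3-H]-labelled CCK-8 tracer and compound 150 minutes at 25° C. Pellet radioactivity counted by liquid scintillation; nonspecific binding defined with 5.10^-6 M CCK-8.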

[2] = test system: acid secretion induced by pentagastrin; test: Acid secretion induced by pentagastrin in the anaesthetized rat; type: in vivo; details: for ED50: iv, 1 h, I.V. bolus, pentagastrin 30 mcg/kg/h, read-out: Activity (ID50), inhibition of the acid secretion induced by pentagastrin; for antigastrin activity relative to the diastereoisomer at the carbon atom (**): pentagastrin-induced acid secretion

O=C(CC[C@@H](NC(=O)c1cc(Cl)cc(Cl)c1)C(=O)N1CCC2(CCCC2)CC1)N[C@H](Cc1ccccc1)C(=O)O [Compound 9, (R,R)-1[(1-carboxy-2-phenylethyl)amino]-1 oxo-5-(8-azaspiro[4.5]decan-8-yl)-4-(3,5-dichloro-benzoylamino)-5-oxopentanoic acid]
Ratio IC50 Binding cortex / IC50 (gastric mucous cells) [1]: 3.0 | CCK-B-antagonistic activity IC50 (II) [1]: 50 nM | IC50, inhibition of the increase of cytosolic calcium [1]: 50 nM | times more active than the corresponding diastereoisomer at the carbon atom (**) (central CCK-B receptor): about 5 times | IC50 (central CCK-B receptor; guinea-pig cortical membranes): 150 nM | ED50 [2]: 12.3 mg/kg and 22.6 µmol/kg | antigastrin activity relative to the diastereoisomer at the carbon atom (**) [2]: about twice

O=C(CC[C@@H](NC(=O)c1cc(Cl)cc(Cl)c1)C(=O)N1CCC2(CCCC2)CC1)N[C@H](Cc1c[nH]c2ccccc12)C(=O)O [Compound 21]
Ratio IC50 Binding cortex / IC50 (gastric mucous cells) [1]: 4.0 | CCK-B-antagonistic activity IC50 (II) [1]: 10 nM | IC50 order of magnitude, peripheral antigastrin activity ([1]; rabbit gastric mucous cells): nanomolar order of magnitude | IC50, inhibition of the increase of cytosolic calcium [1]: 10 nM | times more active than the corresponding diastereoisomer at the carbon atom (**) (central CCK-B receptor): about 5 times | inhibition of the binding of [N-methyl-N-leucine]CCK-8, result in words (central CCK-B receptor; guinea-pig cortical membranes): potent inhibitors | IC50 (central CCK-B receptor; guinea-pig cortical membranes): 40 nM | ED50 [2]: 7.9 mg/kg and 12.6 µmol/kg | antigastrin activity relative to the diastereoisomer at the carbon atom (**) [2]: almost the same antigastrin activity
